# Where a name gives a salt, the structure may show the parent alone.
# Key:
# [1] = target: PDE 7 (phosphodiesterase VII) (Homo sapiens (Human), UniProt Q13946); assay: PDE 7 inhibiting effect (3H-cAMP hydrolysis, PDE 7 active fraction from MOLT-4 cells); assay type: biochemical; conditions: PDE 7 fraction from MOLT-4 cells, 0.064 μM cAMP, 10 μM rolipram, 2 hours at 25° C.; read-out: PDE7 IC50
# Experimental: Methods for Evaluating the PDE 7 Inhibiting Effect
# The PDE 7 (phosphodiesterase VII) inhibiting effect of the compounds of the present invention was performed by the following method, which was modified assay method described in Biochemical. Pharmacol. 48(6), 1219-1223 (1994). • (1) The active fraction of PDE 7 (phosphodiesterase VII) was obtained. That is, MOLT-4 (obtainable from ATCC as ATCC No. CRL-1582), which was cell line of human acute lymphoblastic lymphoma T cells, was incubated in RPMI1640 culture medium containing 10% fetal bovine serum to obtain 5×10^8 MOLT-4 cells. The cells were collected by centrifugation and suspended with 10 mL of buffer solution A [25 mM of tris-HCl, 5 mM of 2-mercaptoethanol, 2 mM of benzamidine, 2 mM of EDTA, 0.1 mM of 4-(2-aminoethyl)benzenesulfonyl hydrochloride; pH 7.5], then homogenized by Polytron® homogenizer. The homogenate were centrifuged under 25,000×G for 10 minutes at 4° C. The supernatant was separated and thus obtained supernatant was further centrifuged under 100,000×G for 60 minutes at 4° C., and then filtrated with 0.2 μm filter to obtain the soluble fraction. • (2) The obtained soluble fraction was filled in equilibrium HiTrap Q column (5 mL×2) with buffer solution A, and phosphodiesterase fractions were eluted by 300 mL of buffer solution A with linear gradient from 0 to 0.8 M NaCl concentration. 5 mL each of 60 eluents were collected, and each eluents were examined for cyclic AMP metabolic activities of phosphodiesterase. […] After the reaction, suspension of Sephadex®-QAE in 10 mM of HEPES-Na (pH 7.0) was added to the reaction mixture, and the mixture was left at rest for 5 minutes.
# [2] = target: PDE 4 (phosphodiesterase IV); assay: PDE 4 inhibiting effect (3H-cAMP hydrolysis, PDE 4 active fraction from Balb/c mouse liver); assay type: biochemical; conditions: PDE 4 fraction from Balb/c mice liver, 0.064 μM cAMP, 2 hours at 25° C.; read-out: PDE4 IC50
# Experimental: Methods for Evaluating the PDE 4 Inhibiting Effect
# The PDE 4 (phosphodiesterase IV) inhibiting effect of the compounds of the present invention was performed by the following method, which was modified assay method described in Biochemical. […] That is, the livers obtained from three Balb/c mice (male, 12 weeks: obtainable from CLEA Japan, Inc.) were suspended with 30 mL of buffer solution B [20 mM of bis-tris, 5 mM of 2-mercaptoethanol, 2 mM of benzamidine, 2 mM of EDTA, 0.1 mM of 4-(2-aminoethyl)benzenesulfonyl hydrochloride, 50 mM of sodium acetate; pH 6.5], then homogenized by Polytron® homogenizer. The homogenate were centrifuged under 25,000×G for 10 minutes at 4° C. The supernatant was separated and thus obtained supernatant was further centrifuged under 100,000×G for 60 minutes at 4° C., and then filtrated with 0.2 μm filter to obtain the soluble fraction. • (2) The obtained soluble fraction was filled in equilibrium DEAE sepharose column (1×10 cm) with buffer solution B, and phosphodiesterase fractions were eluted by 120 mL of buffer solution B with linear gradient from 0.05 to 1M sodium acetate concentration. 5 mL each of 24 eluents were collected, and each eluents were examined for cyclic AMP metabolic activities of phosphodiesterase. […] After the reaction, suspension of Sephadex®-QAE in 10 mM of HEPES-Na (pH 7.0) was added to the reaction mixture, and the mixture was left at rest for 5 minutes.
# Chain of PDE 7 (phosphodiesterase VII) (Q13946 whole entry): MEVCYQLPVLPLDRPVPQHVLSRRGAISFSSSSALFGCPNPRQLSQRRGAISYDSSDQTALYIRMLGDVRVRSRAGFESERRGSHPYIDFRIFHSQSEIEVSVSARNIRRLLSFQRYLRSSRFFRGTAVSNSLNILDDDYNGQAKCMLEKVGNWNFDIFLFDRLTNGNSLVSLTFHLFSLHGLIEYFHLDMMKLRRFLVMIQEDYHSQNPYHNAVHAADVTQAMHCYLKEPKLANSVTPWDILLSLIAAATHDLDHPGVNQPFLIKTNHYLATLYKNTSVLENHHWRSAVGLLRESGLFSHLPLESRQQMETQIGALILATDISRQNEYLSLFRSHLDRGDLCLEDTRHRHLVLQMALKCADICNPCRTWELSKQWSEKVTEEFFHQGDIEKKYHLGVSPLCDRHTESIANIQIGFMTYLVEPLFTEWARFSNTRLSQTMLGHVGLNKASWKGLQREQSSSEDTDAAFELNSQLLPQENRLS
Structure (SMILES),IC50 [1],IC50 [2]
"CC(=O)c1ccc(NC(=O)c2cc3c(C)nn(C4CCCCC4)c3s2)cc1 [Example 38, N-(4-Acetylphenyl)-1-cyclohexyl-3-methyl-1H-thieno[2,3-c]pyrazole-5-carboxamide]",33 nM,5 µM
"Cc1nn(C2CCCCC2)c2sc(C(=O)Nc3ccc(C(=O)N(C)C)cc3)cc12 [Example 39, 1-Cyclohexyl-N-{4-[(dimethylamino)carbonyl]phenyl}-3-methyl-1H-thieno[2,3-c]pyrazole-5-carboxamide]",14 nM,3.5 µM
"CCOC(=O)c1ccc(NC(=O)c2cc3c(C)nn(C4CCCCC4)c3s2)cc1 [Example 40, Ethyl 4-{[(1-cyclohexyl-3-methyl-1H-thieno[2,3-c]pyrazol-5-yl)-carbonyl]amino}benzoate]",75 nM,15 µM
"Cc1nn(C2CCCCC2)c2sc(C(=O)Nc3ccc(C(=O)O)cc3)cc12 [Example 41, 4-{[(1-Cyclohexyl-methyl-1H-thieno[2,3-c]pyrazol-5-yl)carbonyl]-amino}benzoic acid]",50 nM,12 µM
"Cc1nn(C2CCCCC2)c2sc(C(=O)Nc3ccc(C(=O)NC(C)C)cc3)cc12 [Example 45, 1-Cyclohexyl-N-{4-[(isopropylamino)carbonyl]phenyl}-3-methyl-1H-thieno[2,3-c]pyrazole-5-carboxamide]",50 nM,12 µM
"Cc1nn(C2CCCCC2)c2sc(C(=O)Nc3ccc(C(=O)NCCO)cc3)cc12 [Example 46, 1-Cyclohexyl-N-(4-{[(2-hydroxyethyl)amino]carbonyl}phenyl)-3-methyl-1H-thieno[2,3-c]pyrazole-5-carboxamide]",30 nM,2 µM
"CC(=O)Nc1ccc(NC(=O)c2cc3c(C)nn(C4CCCCC4)c3s2)cn1 [Example 47, N-[6-(Acetylamino)-3-pyridinyl]-1-cyclohexyl-3-methyl-1H-thieno[2,3-c]pyrazole-5-carboxamide]",32 nM,3.5 µM
"Cc1nn(C2CCCCC2)c2sc(C(=O)Nc3ccc(C(=O)NC(C)(C)C)cc3)cc12 [Example 51, N-{4-[(tert-Butylamino)carbonyl]phenyl}-1-cyclohexyl-3-methyl-1H-thieno[2,3-c]pyrazole-5-carboxamide]",75 nM,9.5 µM
"Cc1nn(C2CCCCC2)c2sc(C(=O)Nc3ccc(NC=O)cc3)cc12 [Example 53, 1-Cyclohexyl-N-[4-(formylamino)phenyl]-3-methyl-1H-thieno[2,3-c]pyrazole-5-carboxamide]",55 nM,3.5 µM
"Cc1nn(C2CCCCC2)c2sc(C(=O)Nc3ccc4c(c3)CCN4C(=O)C3CC3)cc12 [Example 58, 1-Cyclohexyl-N-[1-(cyclopropylcarbonyl)-2,3-dihydro-1H-indol-5-yl]-3-methyl-1H-thieno[2,3-c]pyrazole-5-carboxamide]",36 nM,3.6 µM
"Cc1nn(C2CCCCC2)c2sc(C(=O)Nc3ccc4c(c3)CCN4S(C)(=O)=O)cc12 [Example 59, 1-Cyclohexyl-3-methyl-N-[1-(methylsulfonyl)-2,3-dihydro-1H-indol-5-yl]-1H-thieno[2,3-c]pyrazole-5-carboxamide]",80 nM,7 µM
"CC(=O)n1ccc2cc(NC(=O)c3cc4c(C)nn(C5CCCCC5)c4s3)ccc21 [Example 60, N-(1-Acetyl-1H-indol-5-yl)-1-cyclohexyl-3-methyl-1H-thieno[2,3-c]pyrazole-5-carboxamide]",65 nM,6.5 µM
CNC(=O)COc1ccc(NC(=O)c2cc3c(C)nn(C4CCCCC4)c3s2)cc1 [Example 67],23 nM,3.5 µM
CNC(=O)Cc1ccc(NC(=O)c2cc3c(C)nn(C4CCCCC4)c3s2)cc1 [Example 70],25 nM,4.7 µM
"Cc1nn(C2CCCCC2)c2sc(C(=O)Nc3ccc(N4CCNCC4)cc3)cc12 [Example 72, 1-Cyclohexyl-3-methyl-N-[4-(1-piperazinyl)phenyl]-1H-thieno[2,3-c]pyrazole-5-carboxamide HCl salt]",10 nM,1.2 µM
"CC(=O)N1CCN(c2ccc(NC(=O)c3cc4c(C)nn(C5CCCCC5)c4s3)cc2)CC1 [Example 73, N-[4-(4-Acetyl-1-piperazinyl)phenyl]-1-cyclohexyl-3-methyl-1H-thieno[2,3-c]pyrazole-5-carboxamide]",12 nM,1 µM
"Cc1nn(C2CCCCC2)c2sc(C(=O)N[C@H]3CC[C@H](O)CC3)cc12 [Example 74, 1-Cyclohexyl-N-(trans-hydroxycyclohexyl)-3-methyl-1H-thieno[2,3-c]pyrazole-5-carboxamide]",50 nM,7 µM
"Cc1nn(C2CCCCC2)c2sc(C(=O)Nc3ccc(OCC(=O)N4CCN(C)CC4)cc3)cc12 [Example 76, 1-Cyclohexyl-3-methyl-N-{4-[2-(4-methyl-1-piperazinyl)-2-oxoethexy]-phenyl}-1H-thieno[2,3-c]pyrazole-5-carboxamide]",20 nM,2 µM
"Cc1nn(C2CCCCC2)c2sc(C(=O)Nc3ccc(OCC(=O)N(C)C)cc3)cc12 [Example 77, 1-Cyclohexyl-N-{4-[2-(dimethylamino)-2-oxoethoxy]phenyl}-3-methyl-1H-thieno[2,3-c]pyrazole-5-carboxamide]",20 nM,2 µM
"CC(=O)N[C@H]1CC[C@H](NC(=O)c2cc3c(C)nn(C4CCCCC4)c3s2)CC1 [Example 80, N-[trans-4-(Acetylamino)cyclohexyl]-1-cyclohexyl-3-methyl-1H-thieno[2,3-c]pyrazole-5-carboxamide]",60 nM,2.5 µM
"CC(=O)Nc1ccc(NC(=O)c2cc3c(C)nn(C4CCCCCC4)c3s2)cc1 [Example 94, N-[4-(Acetylamino)phenyl]-1-cycloheptyl-3-methyl-1H-thieno[2,3-c]pyrazole-5-carboxamide]",58 nM,> 30 µM
"Cc1nn(C2CCCCC2)c2sc(C(=O)Nc3ccc(N)cc3)cc12 [Example 99, N-(4-Aminophenyl)-1-cyclohexyl-3-methyl-1H-thieno[2,3-c]pyrazole-5-carboxamide]",99 nM,5 µM
"CC(=O)Nc1ccc(NC(=O)c2cc3c(C)nn(C4CCCCC4)c3s2)cc1 [Example 100, N-[4-(Acetylamino)phenyl]-1-cyclohexyl-3-methyl-1H-thieno[2,3-c]pyrazole-5-carboxamide]",37 nM,> 30 µM
"COCC(=O)Nc1ccc(NC(=O)c2cc3c(C)nn(C4CCCCC4)c3s2)cc1 [Example 101, 1-Cyclohexyl-N-{4-[(methoxyacetyl)amino]phenyl}-3-methyl-1H-thieno[2,3-c]pyrazole-5-carboxamide]",30 nM,1.3 µM
"COC(=O)c1ccc(NC(=O)c2cc3c(C)nn(C4CCCCC4)c3s2)cn1 [Example 102, Methyl 5-{[(1-Cyclohexyl-3-methyl-1H-thieno[2,3-c]pyrazol-5-yl)-carbonyl]amino}-2-pyridinecarboxylate]",85 nM,5.5 µM
"CNC(=O)c1ccc(NC(=O)c2cc3c(C)nn(C4CCCCC4)c3s2)cn1 [Example 104, 1-Cyclohexyl-3-methyl-N-{6-[(methylamino)carbonyl]-3-pyridinyl}-1H-thieno[2,3-c]pyrazole-5-carboxamide]",58 nM,1.5 µM
"Cc1nn(C2CCCCC2)c2sc(C(=O)Nc3ccc(N4CCN(C)CC4)cc3)cc12 [Example 106, 1-Cyclohexyl-3-methyl-N-[4-(4-methyl-1-piperazinyl)phenyl]-1H-thieno[2,3-c]pyrazole-5-carboxamide]",9 nM,1.2 µM

# Reference: patent US8901315B2, “Thienopyrazole derivative having PDE7 inhibitory activity” (Daiichi Sankyo Company, Limited, priority 2004, dated 2014)
